Here are results for 1 molecule from paper PMC4339887, “Selective Sirt2 inhibition by ligand-induced rearrangement of the active site” (Nature Communications, 2015).

The test has as its system mitochondrial lysine-acetylation in HEK293 cells. Briefly: mitochondrial protein acetylation, western blot of mitochondrial extracts. The class given is cell-based. As to conditions: 16 h. The method, then: page 27: Cell cultiva tion. HEK-293 cells (ATCC accession no. CRL-1573) were grown in Dulbecco's modified Eagle's medium (DMEM, PAA) containing 10% (vol/vol) fetal calf serum (FCS, PAA), 1% (vol/vol) penicillin (PAA), 1% (vol/vol) streptomycin (PAA), 1% (vol/vol), L- glutamine (PAA) at 37 °C in a 5% (vol/vol) CO2 atmosphere. Mitochondrial extra ction. HEK-293 cells (ATCC accession no. CRL-1573) were treated with nicotinamide or […]2 at the indicated concentrations for 16 h. Cells were washed in PBS and lysed in 5 packed cell volumes of lysis buffer (20 mM HEPES/KOH, 250 mM sucrose; 10 mM KCl, 1.5 mM MgCl2, 1 mM EDTA, 1 mM EGTA, 1 mM DTT; 0.1 mM PMSF, 1uComplete Protease Inhibitor Cocktail (Roche), pH 7.5). Cells were then homogenized in a Dounce homogenizer and 10% (vol/vol) of sample was removed for use as whole cell extract (WCE). To the remaining lysate, unbroken cells and nuclei were removed by centrifugation (10 min, 800g). The supernatant was transferred and centrifuged (10 min, 7,000g) to pellet mitochondria. Mitochondria were washed twice in lysis buffer, repeating centrifugation after each wash, followed by resuspending washed mitochondria in lysis buffer. […] Lysates were cleared by centrifugation, protein concentrations were quantitated and normalized with 1u Laemmli Buffer. […]
In general terms: In western blotting, separated proteins are transferred to a membrane and probed.

Structures are written as SMILES.

For `Cc1cc(C)nc(SCC(=O)Nc2ncc(Cc3cccc4ccccc34)s2)n1` [SirReal2], the “acetylation of mitochondrial proteins” value is listed as “does not alter”.
